The subject of data set [1] is serum cholesterol and serum triglyceride levels. Description: Testing of normal mice: hypolipidemic activity in CF1 mice. It is filed as in vivo, CF1 male mice. Particulars: Mus musculus, ip. How it is done: The following compounds were tested for their hypolpidemic activity in CF1 mice.
Compounds A-V as defined above, were suspended in an aqueous 1 percent carboxymethylcellulose (CMC) solution and homogenized. Each of the so prepared compounds were administered to a group of six CF1 male mice, each weighing approximately 25 grams, intraperitioneally for 16 days. Each of these compounds were provided in a dosage of 20 mg/kg/d ip. On Days 9 and 16 blood was obtained by tail vein bleeding. The blood serum so obtained was separated by centrifugation for three minutes. Serum cholesterol levels were determined by a modification of the Liebermann-Burchard reaction (Ness, Clin. Chim. Acta., Vol. 10, 229 [1964]). Serum triglyceride levels were determined on Day 16 by use of the Fisher, Hycel Triglyceride Test Kit.
In addition to the above-described treated mice, an untreated control group of six mice were similarly tested on Days 9 and 16 to determine their serum cholesterol and trigylceride blood levels. Based on the results obtained for the untreated control group, the percent control, based on serum cholesterol and serum triglyceride levels of the treated mice compared to the untreated mice, was obtained. Table 1 reports this percent control, including standard deviation, indicating the level of confidence of these numbers.

Data set [2] shares this test system. As to the kind of experiment: Testing of hyperlipidemic mice (atherogenic diet). The data set is classed as in vivo, CF1 male mice. Particulars: hyperlipidemic CF1 mice, 20 mg/kg/d intraperitoneally, Day 12. On the procedure:
A group of six CF^1 male mice (about 25 g) were placed on a commercial diet (U.S. Biochemical Corporation Basal Atherogenic Test Diet) which produced a "hyperlipidemic" state. That is, the average serum cholesterol level in the group of treated mice was raised from 122 to 375 mg percent and triglyceride levels were raised from 137 to 367 mg/dL.

Data set [3] concerns Serum cholesterol and triglyceride levels. Description: Serum testing of normal rats. Particulars: 20 mg/kg per day orally. The data set is classed as in vivo, Sprague-Dawley male rats. An excerpt: (§1) A test solution of Compounds A, F, J, M, N and O were suspended in an aqueous solution of 1% CMC, homogenized and administered orally to six Sprague-Dawley male rats, which each weighted approximately 350 grams. Administration of the compounds was by an intubation needle. The rats were each fed with 20 milligrams of Compounds A, F, J, M, N and O per kilogram of body weight per day for 14 days. Similarly, six Sprague-Dawley male rats of approximately the same weight (that used for testing F weighed approximately 160 grams) were fed similar volumes of the same aqueous 1% CMC solution without the active agents, also orally, administered by intubation needle. In addition, as a control, a similar group of six male Sprague-Dawley rats were untreated.
On Days 7 and 14, blood was obtained from each of the rats of the three groups by tail vein bleeding. The blood obtained was separated by centrifugation for three minutes. Serum cholesterol and triglyceride levels were determined in accordance with the procedure of Example 6.

The test system of the next data set is serum lipoprotein. As to the kind of experiment: Cholesterol content of serum lipoprotein of treated Sprague-Dawley rats. The data set is classed as in vivo. The note with it: orally 14 days at 20 mg/kg/day.
From the text: as §1
The cholesterol content of serum lipoprotein
of Sprague-Dawley Rats treated
orally for 14 days at 20 mg/kg/day

Data set [4] in a line: LD50 value in mice as single injection IP. The note with it: mouse, in vivo.

Where two headings read alike, the source gives them in different places.

In the case of `CCOC(=O)C1n2c(=O)n(-c3ccccc3)c(=O)n21` [M, 3-phenyl-6-ethoxycarbonyl-1,3,5-triazabicyclo[3.1.0]hexane-2,4-dione], in data set [1] (216 h, read-out: Serum Cholesterol, Day 9), the response vs control in vivo at 20 mg/kg/day amounted to 62 ± 6%. For the same compound, the response vs control in vivo at 20 mg/kg/day in data set [1] (384 h, read-out: Serum Cholesterol, Day 16) came to 57 ± 5%. Moreover, in data set [1] (384 h, read-out: Serum Triglyceride, Day 16), the response vs control in vivo at 20 mg/kg/day was 59 ± 6%. In data set [2], the “Serum Cholesterol” value was 46% of Control and the “Serum Triglyceride” value is 54% of Control. In data set [3] (Day 7), the “Serum Cholestrol, Day 7” value is 70% of Control and the “Serum Triglyceride, Day 7” value is 36% of Control. In addition, in data set [3] (Day 14), the “Serum Cholestrol, Day 14” value was 36% of Control and the “Serum Triglyceride, Day 14” value is 54% of Control. Also, in the data set on serum lipoprotein, the HDL cholesterol was 340% of Control, the LDL cholesterol is given as 67% of Control and the VLDL cholesterol is 71% of Control. Moreover, the 50% lethal dose (LD50) in data set [4] was greater than 500 mg/kg.

What is called LD50 is the dose expected to kill half of the subjects tested. A lower LD50 goes with a more toxic substance.

(Values after patent US4866058A, “Method for control of hyperlipidemia” (priority 1988, dated 1989).)
